The values that follow come from patent US8012975B2, “Antitumoral analogs of ET-743” (Pharma Mar, S.A., priority 2000, dated 2011).

Structures are written as SMILES. Like-named read-outs stand apart in the source and are kept apart here.

One experiment concerns MEL-28. The experiment in a line: Cytotoxic activity IC50, MEL-28. The note with it: Homo sapiens.
Another experiment relates to DU-145. The experiment in a line: Cytotoxic activity IC50, DU-145. As to conditions: Homo sapiens.
A further experiment deals with A-549. The experiment in a line: Cytotoxic activity IC50, A-549. The note with it: Homo sapiens.
A further experiment deals with HT-29. The experiment in a line: Cytotoxic activity IC50, HT-29. As to conditions: Homo sapiens.
A further experiment concerns P-388. The experiment in a line: Cytotoxic activity IC50, P-388. As to conditions: Mus musculus, P388, read-out: CYTOTOXIC ACTIVITIY IC50 (μM) P-388.
Setting [1] is: SK-MEL-28, read-out: CYTOTOXIC ACTIVITIY IC50 (μM) MEL-28, MEL-28.
Setting [2] is: DU-145, read-out: CYTOTOXIC ACTIVITIY IC50 (μM) DU-145, DU-145.
[3] abbreviates: A549, read-out: CYTOTOXIC ACTIVITIY IC50 (μM) A-549, A-549.
[4] abbreviates: HT-29, read-out: CYTOTOXIC ACTIVITIY IC50 (μM) HT-29, HT-29.

As a reminder, the IC50 is the concentration at which inhibition is half-maximal.

With `COc1c(C)cc2c(c1O)[C@@H]1C3Cc4c(OC(C)=O)c(C)c5c(c4[C@H](CNC(=O)[C@H](C)NC(=O)Cc4ccccc4)N3[C@@H](O)[C@H](C2)N1C)OCO5` (stereo partly shown) [drawing 137], the IC50 in the experiment with MEL-28 (setting [1]), with DU-145 (setting [2]), in the experiment with A-549 (setting [3]), in the experiment on HT-29 (setting [4]) and in the experiment on P-388 was 0.0007 µM each time.
On to `COc1c(C)cc2c(c1O)[C@@H]1C3Cc4c(OC(=O)CCl)c(C)c5c(c4[C@H](CNC(=O)CCc4ccccc4)N3[C@@H](C#N)[C@H](C2)N1C)OCO5` (stereo partly shown), for which the IC50 in the experiment with MEL-28 (setting [1]), with DU-145 (setting [2]), in the experiment on A-549 (setting [3]), in the experiment with HT-29 (setting [4]) and in the experiment on P-388 was 0.001 µM each time.
In the case of `COCOc1c(OC)c(C)cc2c1[C@@H]1C3Cc4c(OC(C)=O)c(C)c5c(c4[C@H](COC(=O)/C=C/c4cccc(C(F)(F)F)c4)N3[C@@H](C#N)[C@H](C2)N1C)OCO5` (stereo partly shown), the IC50 in the experiment on MEL-28 (setting [1]), with DU-145 (setting [2]), in the experiment on A-549 (setting [3]), with HT-29 (setting [4]) and in the experiment on P-388 was 0.6 µM in each case.
For `CCCCC(=O)NC[C@H]1c2c(c(OC(C)=O)c(C)c3c2OCO3)CC2[C@H]3c4c(cc(C)c(OC)c4O)C[C@@H]([C@H](C#N)N21)N3C` (stereo partly shown), the IC50 in the experiment with MEL-28 (setting [1]), in the experiment on DU-145 (setting [2]), in the experiment with A-549 (setting [3]), in the experiment with HT-29 (setting [4]) and in the experiment with P-388 was 0.007 µM throughout.
With `C=CCOC(=O)Oc1c(C)c2c(c3c1CC1[C@H]4c5c(cc(C)c(OC)c5OCOC)C[C@@H]([C@H](O)N1[C@H]3CNC(=O)CCc1ccccc1)N4C)OCO2` (stereo partly shown), the IC50 in the experiment on MEL-28 (setting [1]), with DU-145 (setting [2]), with A-549 (setting [3]), with HT-29 (setting [4]) and in the experiment with P-388 was 0.1 µM throughout.
For `C=CCOc1c(C)c2c(c3c1CC1[C@H]4c5c(cc(C)c(OC)c5OCOC)C[C@@H]([C@H](C#N)N1[C@H]3CO)N4C)OCO2` (stereo partly shown), the IC50 with MEL-28 (setting [1]), in the experiment on DU-145 (setting [2]), in the experiment on A-549 (setting [3]), with HT-29 (setting [4]) and in the experiment on P-388 was 0.2 µM in each case.
Turning to `COc1c(C)cc2c(c1O)[C@@H]1C3Cc4c(OC(C)=O)c(C)c5c(c4[C@H](CNC(=O)CC(C)C)N3[C@@H](O)[C@H](C2)N1C)OCO5` (stereo partly shown), the IC50 in the experiment with MEL-28 (setting [1]) came out at 0.0008 µM; in the experiment with DU-145 (setting [2]), 0.001 µM; with A-549 (setting [3]), 0.001 µM; with HT-29 (setting [4]), 0.0008 µM; with P-388, 0.0008 µM.
Regarding `C=CCOC(=O)Oc1c(C)c2c(c3c1CC1[C@H]4c5c(cc(C)c(OC)c5O)C[C@@H]([C@H](C#N)N1[C@H]3CN)N4C)OCO2` (stereo partly shown), the IC50 in the experiment with MEL-28 (setting [1]), with DU-145 (setting [2]), in the experiment with A-549 (setting [3]), with HT-29 (setting [4]) and in the experiment with P-388 was 0.06 µM throughout.
On to `C=CCOC(=O)Oc1c(C)c2c(c3c1CC1[C@H]4c5c(cc(C)c(OC)c5OCOC)C[C@@H]([C@H](C#N)N1[C@H]3CNC(=O)[C@H](C)NC(=O)OC(C)(C)C)N4C)OCO2` (stereo partly shown), for which the IC50 with MEL-28 (setting [1]), with DU-145 (setting [2]), in the experiment on A-549 (setting [3]), in the experiment with HT-29 (setting [4]) and with P-388 was 0.06 µM each time.
Consider `COCOc1c(OC)c(C)cc2c1[C@@H]1C3Cc4c(O)c(C)c5c(c4[C@H](COC(=O)/C=C/c4cccc(C(F)(F)F)c4)N3[C@@H](C#N)[C@H](C2)N1C)OCO5` (stereo partly shown), for which the IC50 with MEL-28 (setting [1]), in the experiment with DU-145 (setting [2]), in the experiment with A-549 (setting [3]), in the experiment with HT-29 (setting [4]) and in the experiment with P-388 was 0.1 µM throughout.
On to `C=CCOC(=O)Oc1c(C)c2c(c3c1CC1[C@H]4c5c(cc(C)c(OC)c5O)C[C@@H]([C@H](C#N)N1[C@H]3CNC(=O)[C@H](C)N)N4C)OCO2` (stereo partly shown), for which the half-inhibitory concentration (IC50) in the experiment with MEL-28 (setting [1]), in the experiment on DU-145 (setting [2]), in the experiment on A-549 (setting [3]), in the experiment on HT-29 (setting [4]) and in the experiment on P-388 was 0.001 µM each time.
`COCOc1c(OC)c(C)cc2c1[C@@H]1C3Cc4c(OC(=O)C(F)(F)F)c(C)c5c(c4[C@H](CNC(=O)CCc4ccccc4)N3[C@@H](C#N)[C@H](C2)N1C)OCO5` (stereo partly shown): the IC50 with MEL-28 (setting [1]), in the experiment with DU-145 (setting [2]), in the experiment on A-549 (setting [3]), in the experiment on HT-29 (setting [4]) and in the experiment on P-388 was 0.5 µM each time.
Regarding `C=CCOC(=O)Oc1c(C)c2c(c3c1CC1[C@H]4c5c(cc(C)c(OC)c5OCOC)C[C@@H]([C@H](C#N)N1[C@H]3CNC(=O)OCC(Cl)(Cl)Cl)N4C)OCO2` (stereo partly shown), the IC50 with MEL-28 (setting [1]), with DU-145 (setting [2]), in the experiment on A-549 (setting [3]), with HT-29 (setting [4]) and with P-388 was 0.1 µM throughout.
`C/C=C/C(=O)N[C@@H](C)C(=O)NC[C@H]1c2c(c(OC(C)=O)c(C)c3c2OCO3)CC2[C@H]3c4c(cc(C)c(OC)c4O)C[C@@H]([C@H](C#N)N21)N3C` (stereo partly shown): the IC50 was determined as 0.001 µM in the experiment on MEL-28 (setting [1]); 0.007 µM with DU-145 (setting [2]); 0.007 µM with A-549 (setting [3]); 0.001 µM in the experiment on HT-29 (setting [4]); 0.001 µM in the experiment on P-388.
Consider `COc1c(C)cc2c(c1O)[C@@H]1C3Cc4c(OC(C)=O)c(C)c5c(c4[C@H](CNC(=O)Cc4ccccc4)N3[C@@H](O)[C@H](C2)N1C)OCO5` (stereo partly shown) [drawing 124], for which the IC50 in the experiment on MEL-28 (setting [1]), in the experiment on DU-145 (setting [2]), in the experiment on A-549 (setting [3]), with HT-29 (setting [4]) and in the experiment on P-388 was 0.0007 µM in each case.
On to `C=CCOc1c(C)c2c(c3c1CC1[C@H]4c5c(cc(C)c(OC)c5OCOC)C[C@@H]([C@H](C#N)N1[C@H]3COC(=O)/C=C/c1cccc(C(F)(F)F)c1)N4C)OCO2` (stereo partly shown), for which the IC50 with MEL-28 (setting [1]), with DU-145 (setting [2]), with A-549 (setting [3]), in the experiment on HT-29 (setting [4]) and with P-388 was more than 1 µM each time.
Turning to `COc1c(C)cc2c(c1O)[C@@H]1C3Cc4c(OC(=O)C(F)(F)C(F)(F)C(F)(F)F)c(C)c5c(c4[C@H](CNC(=O)CCc4ccccc4)N3[C@@H](C#N)[C@H](C2)N1C)OCO5` (stereo partly shown), the IC50 with MEL-28 (SK-MEL-28, read-out: CYTOTOXIC ACTIVITIY IC50 (μM) MEL-28) was 0.006 µM; with DU-145 (DU-145, read-out: CYTOTOXIC ACTIVITIY IC50 (μM) DU-145), 0.006 µM; in the experiment on A-549 (A549, read-out: CYTOTOXIC ACTIVITIY IC50 (μM) A-549) it was 0.006 µM; in the experiment with HT-29 (HT-29, read-out: CYTOTOXIC ACTIVITIY IC50 (μM) HT-29), 0.006 µM; with P-388 it was 0.006 µM.
For `COc1c(C)cc2c(c1O)[C@@H]1C3Cc4c(OC(C)=O)c(C)c5c(c4[C@H](CNC(=O)[C@H](C)NC(=O)CCc4ccccc4)N3[C@@H](C#N)[C@H](C2)N1C)OCO5` (stereo partly shown), the IC50 is 0.001 µM in the experiment with MEL-28 (setting [1]); 0.0006 µM in the experiment with DU-145 (setting [2]); 0.001 µM in the experiment on A-549 (setting [3]); 0.0006 µM in the experiment with HT-29 (setting [4]); 0.0006 µM in the experiment with P-388.
As for `COc1c(C)cc2c(c1O)[C@@H]1C3Cc4c(OC(C)=O)c(C)c5c(c4[C@H](CNC(=O)[C@H](C)NC(=O)[C@@H](NC(=O)OCc4ccccc4)C(C)C)N3[C@@H](C#N)[C@H](C2)N1C)OCO5` (stereo partly shown), the IC50 with MEL-28 (setting [1]), in the experiment on DU-145 (setting [2]), with A-549 (setting [3]), with HT-29 (setting [4]) and in the experiment with P-388 was 0.01 µM throughout.
As to `C=CCOc1c(C)c2c(c3c1CC1[C@H]4c5c(cc(C)c(OC)c5OCOC)C[C@@H]([C@H](C#N)N1[C@H]3COC(=O)CCC)N4C)OCO2` (stereo partly shown), the IC50 in the experiment with MEL-28 (setting [1]), in the experiment on DU-145 (setting [2]), in the experiment with A-549 (setting [3]), with HT-29 (setting [4]) and in the experiment with P-388 was more than 1 µM throughout.
On to `C=CCOc1c(C)c2c(c3c1CC1[C@H]4c5c(cc(C)c(OC)c5OCOC)C[C@@H]([C@H](C#N)N1[C@H]3COC(=O)/C=C/c1ccccc1)N4C)OCO2` (stereo partly shown), for which the IC50 in the experiment with MEL-28 (setting [1]), in the experiment with DU-145 (setting [2]), in the experiment with A-549 (setting [3]), with HT-29 (setting [4]) and with P-388 was 0.1 µM in each case.
`CCCC(=O)OC[C@H]1c2c(c(O)c(C)c3c2OCO3)CC2[C@H]3c4c(cc(C)c(OC)c4OCOC)C[C@@H]([C@H](C#N)N21)N3C` (stereo partly shown): the IC50 in the experiment on MEL-28 (setting [1]), in the experiment with DU-145 (setting [2]), with A-549 (setting [3]), in the experiment with HT-29 (setting [4]) and in the experiment with P-388 was 0.1 µM each time.
For `CCCC(=O)N[C@@H](C)C(=O)NC[C@H]1c2c(c(OC(C)=O)c(C)c3c2OCO3)CC2[C@H]3c4c(cc(C)c(OC)c4O)C[C@@H]([C@H](O)N21)N3C` (stereo partly shown), the IC50 in the experiment with MEL-28 (setting [1]), with DU-145 (setting [2]), in the experiment with A-549 (setting [3]), with HT-29 (setting [4]) and with P-388 was 0.001 µM each time.
As to `COc1c(C)cc2c(c1O)[C@@H]1C3Cc4c(OC(C)=O)c(C)c5c(c4[C@H](CNC(=O)[C@@H](NC(=O)OCc4ccccc4)C(C)C)N3[C@@H](C#N)[C@H](C2)N1C)OCO5` (stereo partly shown), the IC50 with MEL-28 (setting [1]), with DU-145 (setting [2]), with A-549 (setting [3]), with HT-29 (setting [4]) and in the experiment with P-388 was 0.001 µM each time.
Regarding `COC1=C(C)C(=O)C2=C(C1=O)[C@H](CNC(=O)[C@H](C)NC(C)=O)N1C(C2)[C@H]2c3c(cc(C)c(OC)c3O)C[C@@H]([C@@H]1C#N)N2C` (stereo partly shown), the IC50 in the experiment with MEL-28 (setting [1]), with DU-145 (setting [2]), in the experiment with A-549 (setting [3]), in the experiment with HT-29 (setting [4]) and in the experiment on P-388 was 0.08 µM in each case.
For the compound `COc1c(C)cc2c(c1O)[C@@H]1C3Cc4c(OC(=O)CCCl)c(C)c5c(c4[C@H](CNC(=O)CCc4ccccc4)N3[C@@H](C#N)[C@H](C2)N1C)OCO5` (stereo partly shown), the IC50 in the experiment on MEL-28 (setting [1]), with DU-145 (setting [2]), in the experiment on A-549 (setting [3]), in the experiment with HT-29 (setting [4]) and with P-388 was 0.01 µM each time.
